Reference: patent US20180038865A1, “CD9 AS A THERAPEUTIC TARGET FOR HEMATOLOGIC MALIGNANCIES” (The Chinese and Knowledge Transfer Services, priority 2016, published 2018)

How the values were obtained:
Assay in all cases: Apoptosis assay (Annexin V/7-AAD), vincristine, monoculture or stromal co-culture
Format in all cases: cell-based, human
697 cells = conditions: vincristine 12.5 nM, 3 days
Method: (§1) […]: In vitro and in vivo effects of CD9 antibody on chemosensitivity of B-ALL cells. (FIG. 4A) B-ALL cell lines were treated with vincristine (VCR, 12.5 nM) for 3 days in monoculture or stromal co-culture. Apoptosis was monitored by Annexin V/7-AAD staining (n=4). (FIG. 4B) 697 cells were treated with VCR (12.5 nM) in stromal co-cultures for 3 days, in the presence of control IgG or anti-CD9 (ALB6, 10 μg/mL), and measured for apoptosis (n=4). (FIG. 4C) NOD/SCID mice were transplanted with 697 cells and treated with IgG alone, anti-CD9 alone (ALB6, 20 μg/mouse), IgG+VCR (0.8 mg/kg) or anti-CD9 + VCR. Antibodies and VCR were given twice a week for 2 weeks. Animal survival was analyzed (4-5 mice/group). Data are means±SEM. Statistics: (A and B) two-tailed, paired Student's t-test, (FIG. 4C) log-rank test. *P<0.05, **P<0.01.
(§2) B-ALL cell lines (1×10^5) were cultured with or without monolayers of BM stromal cells, and exposed to 10 μg/mL of control IgG or CD9 antibody (ALB6). Cells were then treated with vincristine (12.5 nM; Sigma Aldrich) for 3 days at 37° C. Apoptotic cell death was monitored using the Annexin V/7-AAD Apoptosis Detection Kit (BD Biosciences).

SUP-B15 = conditions: vincristine 12.5 nM, 3 days
Method: as §1, §2

Reh cells = conditions: vincristine 12.5 nM, 3 days; CD9low Reh
Method: as §1, §2

RS4;11 = conditions: vincristine 12.5 nM, 3 days
Method: as §1, §2

## CC[C@]1(O)C[C@H]2CN(CCc3c([nH]c4ccccc34)[C@@](C(=O)OC)(c3cc4c(cc3OC)N(C=O)[C@H]3[C@@](O)(C(=O)OC)[C@H](OC(C)=O)[C@]5(CC)C=CCN6CC[C@]43[C@@H]65)C2)C1 [vincristine]
697 cells
  vincristine-mediated apoptotic cell death, stromal co-culture vs monoculture: reduced
SUP-B15
  vincristine-mediated apoptotic cell death, stromal co-culture vs monoculture: reduced
Reh cells
  protective effect of stromal cells against vincristine-mediated apoptotic cell death: absent
RS4;11
  vincristine-mediated apoptotic cell death, stromal co-culture vs monoculture: reduced
